{
  "source": "the supplement of paper PMC10307832",
  "test_in_all_cases": "relative viability (nuclei count vs DMSO), 5 days (fraction); higher = more cells survive",
  "key": {"NCI-H2170": {"system": "NCI-H2170", "in_short": "(§1)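 Medians of duplicate plates are given as relative viability. That measure is the nuclei count in treated wells divided by the count in vehicle wells. Counts were taken on 4× images of lung cancer cell lines in 1536-well plates, 5 days after pin-tool dosing the day after seeding with one drug alone or a fixed anchor-drug dose plus five library-drug doses (not always all listed) in √10 steps.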"}, "NCI-H441": {"system": "NCI-H441", "in_short": "as §1"}, "NCI-H1666": {"system": "NCI-H1666", "in_short": "as §1"}, "EPLC-272H": {"system": "EPLC-272H", "in_short": "as §1"}, "NCI-H838": {"system": "NCI-H838", "in_short": "as §1"}, "LCLC-103H": {"system": "LCLC-103H", "in_short": "as §1"}, "PC-3 [JPC-3]": {"system": "PC-3 [JPC-3]", "in_short": "as §1"}, "NCI-H1792": {"system": "NCI-H1792", "in_short": "as §1"}, "NCI-H2342": {"system": "NCI-H2342", "in_short": "as §1"}, "NCI-H2228": {"system": "NCI-H2228", "in_short": "as §1"}, "NCI-H1755": {"system": "NCI-H1755", "in_short": "as §1"}, "EMC-BAC-2": {"system": "EMC-BAC-2", "in_short": "as §1"}, "HCC-78": {"system": "HCC-78", "in_short": "as §1"}, "SK-MES-1": {"system": "SK-MES-1", "in_short": "as §1"}, "NCI-H1793": {"system": "NCI-H1793", "in_short": "as §1"}, "201T": {"system": "201T", "in_short": "as §1"}, "NCI-H2126": {"system": "NCI-H2126", "in_short": "as §1"}, "NCI-H1355": {"system": "NCI-H1355", "in_short": "as §1"}, "SW 1573": {"system": "SW 1573", "in_short": "as §1"}, "NCI-H520": {"system": "NCI-H520", "in_short": "as §1"}, "NCI-H1975": {"system": "NCI-H1975", "in_short": "as §1"}},
  "data": [
    {"smiles": "Nc1cccc2c1CN(C1CCC(=O)NC1=O)C2=O", "note": "(configuration not stated) [Lenalidomide] + Nc1nc2[nH]cc(CCc3ccc(C(=O)N[C@@H](CCC(=O)O)C(=O)O)cc3)c2c(=O)[nH]1 [Pemetrexed] (partner 0.2 µM)", "values": [
      {"measurement": "relative viability", "setting": "NCI-H2170; first compound 0.253 µM", "result": 0.279},
      {"measurement": "relative viability", "setting": "NCI-H2170; first compound 0.8 µM", "result": 0.282},
      {"measurement": "relative viability", "setting": "NCI-H2170; first compound 2.53 µM", "result": 0.259},
      {"measurement": "relative viability", "setting": "NCI-H2170; first compound 8 µM", "result": 0.27},
      {"measurement": "relative viability", "setting": "NCI-H441; first compound 0.253 µM", "result": 0.27},
      {"measurement": "relative viability", "setting": "NCI-H441; first compound 0.8 µM", "result": 0.273},
      {"measurement": "relative viability", "setting": "NCI-H441; first compound 2.53 µM", "result": 0.268},
      {"measurement": "relative viability", "setting": "NCI-H441; first compound 8 µM", "result": 0.242},
      {"measurement": "relative viability", "setting": "NCI-H1666; first compound 0.253 µM", "result": 0.801},
      {"measurement": "relative viability", "setting": "NCI-H1666; first compound 0.8 µM", "result": 0.878},
      {"measurement": "relative viability", "setting": "NCI-H1666; first compound 2.53 µM", "result": 0.873},
      {"measurement": "relative viability", "setting": "NCI-H1666; first compound 8 µM", "result": 0.826},
      {"measurement": "relative viability", "setting": "EPLC-272H; first compound 0.253 µM", "result": 0.328},
      {"measurement": "relative viability", "setting": "EPLC-272H; first compound 2.53 µM", "result": 0.356},
      {"measurement": "relative viability", "setting": "EPLC-272H; first compound 8 µM", "result": 0.359},
      {"measurement": "relative viability", "setting": "NCI-H838; first compound 0.253 µM", "result": 0.247},
      {"measurement": "relative viability", "setting": "NCI-H838; first compound 0.8 µM", "result": 0.265},
      {"measurement": "relative viability", "setting": "NCI-H838; first compound 2.53 µM", "result": 0.241},
      {"measurement": "relative viability", "setting": "NCI-H838; first compound 8 µM", "result": 0.265},
      {"measurement": "relative viability", "setting": "LCLC-103H; first compound 0.253 µM", "result": 0.488},
      {"measurement": "relative viability", "setting": "LCLC-103H; first compound 0.8 µM", "result": 0.476},
      {"measurement": "relative viability", "setting": "LCLC-103H; first compound 2.53 µM", "result": 0.474},
      {"measurement": "relative viability", "setting": "LCLC-103H; first compound 8 µM", "result": 0.458},
      {"measurement": "relative viability", "setting": "PC-3 [JPC-3]; first compound 0.253 µM", "result": 1.2},
      {"measurement": "relative viability", "setting": "PC-3 [JPC-3]; first compound 0.8 µM", "result": 0.755},
      {"measurement": "relative viability", "setting": "PC-3 [JPC-3]; first compound 2.53 µM", "result": 1.21},
      {"measurement": "relative viability", "setting": "PC-3 [JPC-3]; first compound 8 µM", "result": 1.08},
      {"measurement": "relative viability", "setting": "NCI-H1792; first compound 0.253 µM", "result": 1.12},
      {"measurement": "relative viability", "setting": "NCI-H1792; first compound 0.8 µM", "result": 0.629},
      {"measurement": "relative viability", "setting": "NCI-H1792; first compound 2.53 µM", "result": 1.08},
      {"measurement": "relative viability", "setting": "NCI-H1792; first compound 8 µM", "result": 0.336},
      {"measurement": "relative viability", "setting": "NCI-H2342; first compound 0.253 µM", "result": 0.868},
      {"measurement": "relative viability", "setting": "NCI-H2342; first compound 0.8 µM", "result": 0.774},
      {"measurement": "relative viability", "setting": "NCI-H2342; first compound 2.53 µM", "result": 0.771},
      {"measurement": "relative viability", "setting": "NCI-H2342; first compound 8 µM", "result": 0.577},
      {"measurement": "relative viability", "setting": "NCI-H2228; first compound 0.253 µM", "result": 0.345},
      {"measurement": "relative viability", "setting": "NCI-H2228; first compound 0.8 µM", "result": 0.345},
      {"measurement": "relative viability", "setting": "NCI-H2228; first compound 2.53 µM", "result": 0.358},
      {"measurement": "relative viability", "setting": "NCI-H2228; first compound 8 µM", "result": 0.358},
      {"measurement": "relative viability", "setting": "NCI-H1755; first compound 0.253 µM", "result": 0.441},
      {"measurement": "relative viability", "setting": "NCI-H1755; first compound 0.8 µM", "result": 0.452},
      {"measurement": "relative viability", "setting": "NCI-H1755; first compound 2.53 µM", "result": 0.691},
      {"measurement": "relative viability", "setting": "NCI-H1755; first compound 8 µM", "result": 0.448},
      {"measurement": "relative viability", "setting": "EMC-BAC-2; first compound 0.253 µM", "result": 0.437},
      {"measurement": "relative viability", "setting": "EMC-BAC-2; first compound 0.8 µM", "result": 0.392},
      {"measurement": "relative viability", "setting": "EMC-BAC-2; first compound 2.53 µM", "result": 0.451},
      {"measurement": "relative viability", "setting": "EMC-BAC-2; first compound 8 µM", "result": 0.463},
      {"measurement": "relative viability", "setting": "HCC-78; first compound 0.253 µM", "result": 0.878},
      {"measurement": "relative viability", "setting": "HCC-78; first compound 0.8 µM", "result": 0.936},
      {"measurement": "relative viability", "setting": "HCC-78; first compound 2.53 µM", "result": 0.886},
      {"measurement": "relative viability", "setting": "HCC-78; first compound 8 µM", "result": 0.937},
      {"measurement": "relative viability", "setting": "SK-MES-1; first compound 0.253 µM", "result": 0.91},
      {"measurement": "relative viability", "setting": "SK-MES-1; first compound 0.8 µM", "result": 0.823},
      {"measurement": "relative viability", "setting": "SK-MES-1; first compound 2.53 µM", "result": 0.934},
      {"measurement": "relative viability", "setting": "SK-MES-1; first compound 8 µM", "result": 0.888},
      {"measurement": "relative viability", "setting": "NCI-H1793; first compound 0.253 µM", "result": 0.921},
      {"measurement": "relative viability", "setting": "NCI-H1793; first compound 2.53 µM", "result": 1.15},
      {"measurement": "relative viability", "setting": "NCI-H1793; first compound 8 µM", "result": 0.411},
      {"measurement": "relative viability", "setting": "201T; first compound 0.253 µM", "result": 0.33},
      {"measurement": "relative viability", "setting": "201T; first compound 0.8 µM", "result": 0.325},
      {"measurement": "relative viability", "setting": "201T; first compound 2.53 µM", "result": 0.322},
      {"measurement": "relative viability", "setting": "201T; first compound 8 µM", "result": 0.287},
      {"measurement": "relative viability", "setting": "NCI-H2126; first compound 0.253 µM", "result": 0.655},
      {"measurement": "relative viability", "setting": "NCI-H2126; first compound 0.8 µM", "result": 0.679},
      {"measurement": "relative viability", "setting": "NCI-H2126; first compound 2.53 µM", "result": 0.75},
      {"measurement": "relative viability", "setting": "NCI-H2126; first compound 8 µM", "result": 0.634},
      {"measurement": "relative viability", "setting": "NCI-H1355; first compound 0.253 µM", "result": 1.08},
      {"measurement": "relative viability", "setting": "NCI-H1355; first compound 0.8 µM", "result": 0.784},
      {"measurement": "relative viability", "setting": "NCI-H1355; first compound 2.53 µM", "result": 1.13},
      {"measurement": "relative viability", "setting": "NCI-H1355; first compound 8 µM", "result": 0.738},
      {"measurement": "relative viability", "setting": "SW 1573; first compound 0.253 µM", "result": 0.751},
      {"measurement": "relative viability", "setting": "SW 1573; first compound 0.8 µM", "result": 0.856},
      {"measurement": "relative viability", "setting": "SW 1573; first compound 2.53 µM", "result": 0.98},
      {"measurement": "relative viability", "setting": "SW 1573; first compound 8 µM", "result": 0.812},
      {"measurement": "relative viability", "setting": "NCI-H520; first compound 0.253 µM", "result": 0.722},
      {"measurement": "relative viability", "setting": "NCI-H520; first compound 0.8 µM", "result": 0.607},
      {"measurement": "relative viability", "setting": "NCI-H520; first compound 2.53 µM", "result": 0.79},
      {"measurement": "relative viability", "setting": "NCI-H520; first compound 8 µM", "result": 0.689},
      {"measurement": "relative viability", "setting": "NCI-H1975; first compound 0.253 µM", "result": 0.29},
      {"measurement": "relative viability", "setting": "NCI-H1975; first compound 0.8 µM", "result": 0.303},
      {"measurement": "relative viability", "setting": "NCI-H1975; first compound 2.53 µM", "result": 0.322},
      {"measurement": "relative viability", "setting": "NCI-H1975; first compound 8 µM", "result": 0.332}
    ]}
  ]
}
